Source: US20240269139A1, “COMPOUNDS FOR TARGETED PROTEIN DEGRADATION OF KINASES” (DANA-FARBER CANCER INSTITUTE, INC., priority 2020, published 2024)
Read-outs that look alike come from different tables or passages of the source.

Assays:
Format in all cases: cell-based
[1] = molecular target: protein kinases (human kinome) (Homo sapiens, UniProt Q16584)
[2] = molecular target: T1, protein kinases (human kinome) (Homo sapiens, UniProt Q8TAS1)
T1 sequence (Q8TAS1 1-419): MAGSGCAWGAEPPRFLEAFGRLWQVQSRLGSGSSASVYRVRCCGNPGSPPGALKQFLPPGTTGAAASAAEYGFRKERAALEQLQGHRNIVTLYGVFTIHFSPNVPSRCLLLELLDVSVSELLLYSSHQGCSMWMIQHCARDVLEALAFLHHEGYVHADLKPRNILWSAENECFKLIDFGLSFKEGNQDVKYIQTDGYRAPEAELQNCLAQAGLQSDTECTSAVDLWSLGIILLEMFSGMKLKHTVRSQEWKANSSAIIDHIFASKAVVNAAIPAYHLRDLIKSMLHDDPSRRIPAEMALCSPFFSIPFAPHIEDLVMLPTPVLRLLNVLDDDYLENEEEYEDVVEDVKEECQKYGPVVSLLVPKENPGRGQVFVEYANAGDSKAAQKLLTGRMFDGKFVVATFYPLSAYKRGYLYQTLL

[3] = molecular target: T2, protein kinases (human kinome) (Homo sapiens, UniProt P33981); conditions: for logFC TTK: Accession P33981
T2 sequence (P33981 1-857): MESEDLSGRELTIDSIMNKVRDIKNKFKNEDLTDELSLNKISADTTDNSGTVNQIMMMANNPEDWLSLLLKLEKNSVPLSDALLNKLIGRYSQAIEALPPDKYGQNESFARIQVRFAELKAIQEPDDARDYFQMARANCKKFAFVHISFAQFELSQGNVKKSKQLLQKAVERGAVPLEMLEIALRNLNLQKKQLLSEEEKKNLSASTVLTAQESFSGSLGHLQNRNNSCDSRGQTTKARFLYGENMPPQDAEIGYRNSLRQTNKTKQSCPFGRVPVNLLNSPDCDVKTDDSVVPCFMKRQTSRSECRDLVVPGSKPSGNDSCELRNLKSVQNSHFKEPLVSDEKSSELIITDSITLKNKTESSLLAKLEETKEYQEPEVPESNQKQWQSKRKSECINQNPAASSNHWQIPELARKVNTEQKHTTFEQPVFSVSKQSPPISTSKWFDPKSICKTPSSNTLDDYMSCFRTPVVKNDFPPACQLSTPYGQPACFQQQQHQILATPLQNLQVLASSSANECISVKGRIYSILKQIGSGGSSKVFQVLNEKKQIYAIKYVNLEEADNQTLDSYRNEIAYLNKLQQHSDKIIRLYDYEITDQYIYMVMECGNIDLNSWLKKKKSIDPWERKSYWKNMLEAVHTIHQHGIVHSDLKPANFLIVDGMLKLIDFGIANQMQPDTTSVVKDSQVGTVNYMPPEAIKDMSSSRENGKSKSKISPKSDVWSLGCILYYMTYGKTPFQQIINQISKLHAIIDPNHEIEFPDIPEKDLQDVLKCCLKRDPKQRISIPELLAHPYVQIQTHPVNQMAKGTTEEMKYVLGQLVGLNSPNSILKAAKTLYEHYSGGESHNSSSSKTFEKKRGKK

[4] = molecular target: T3, protein kinases (human kinome) (Homo sapiens, UniProt Q14CZ7); conditions: Accession Q14CZ7, direction down
T3 sequence (Q14CZ7 1-662): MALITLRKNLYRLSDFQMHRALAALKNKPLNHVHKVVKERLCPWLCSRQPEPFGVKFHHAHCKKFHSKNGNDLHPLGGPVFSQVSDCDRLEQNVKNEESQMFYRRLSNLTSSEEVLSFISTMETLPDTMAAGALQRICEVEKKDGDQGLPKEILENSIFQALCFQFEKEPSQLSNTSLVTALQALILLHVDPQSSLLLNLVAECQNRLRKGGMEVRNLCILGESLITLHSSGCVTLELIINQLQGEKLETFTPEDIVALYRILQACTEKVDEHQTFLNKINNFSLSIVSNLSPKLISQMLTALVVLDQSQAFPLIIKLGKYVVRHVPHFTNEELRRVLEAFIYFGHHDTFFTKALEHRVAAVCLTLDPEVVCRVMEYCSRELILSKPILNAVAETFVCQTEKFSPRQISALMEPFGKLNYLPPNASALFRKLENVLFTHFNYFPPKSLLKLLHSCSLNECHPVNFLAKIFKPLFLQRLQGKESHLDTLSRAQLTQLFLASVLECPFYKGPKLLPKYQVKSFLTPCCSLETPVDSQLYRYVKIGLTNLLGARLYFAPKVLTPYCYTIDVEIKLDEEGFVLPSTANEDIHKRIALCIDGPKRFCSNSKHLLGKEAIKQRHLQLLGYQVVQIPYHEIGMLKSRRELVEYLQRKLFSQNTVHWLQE

[5] = molecular target: protein kinases (human kinome) (Homo sapiens, UniProt Q00535); conditions: for logFC of CDK5: Accession Q00535
[6] = Accession Q8TAS1, experiment wp160, 2 hr, direction down
[7] = Accession Q8TAS1, experiment wp160, 4 hr, direction down
[8] = UHMK1 (Q8TAS1), experiment wp160, 2 hr
[9] = UHMK1 (Q8TAS1), experiment wp160, 4 hr

Chain of protein kinases (human kinome) (Homo sapiens, UniProt Q00535) (Q00535 whole entry): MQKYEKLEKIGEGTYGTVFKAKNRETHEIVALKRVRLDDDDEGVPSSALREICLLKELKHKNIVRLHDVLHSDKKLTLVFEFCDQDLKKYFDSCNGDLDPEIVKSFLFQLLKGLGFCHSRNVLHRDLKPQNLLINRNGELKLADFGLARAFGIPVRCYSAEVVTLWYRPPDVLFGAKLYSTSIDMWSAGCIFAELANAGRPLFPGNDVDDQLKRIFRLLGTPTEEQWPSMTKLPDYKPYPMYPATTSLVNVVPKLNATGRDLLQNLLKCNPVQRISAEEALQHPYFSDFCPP
Chain of protein kinases (human kinome) (Homo sapiens, UniProt Q16584) (Q16584 whole entry): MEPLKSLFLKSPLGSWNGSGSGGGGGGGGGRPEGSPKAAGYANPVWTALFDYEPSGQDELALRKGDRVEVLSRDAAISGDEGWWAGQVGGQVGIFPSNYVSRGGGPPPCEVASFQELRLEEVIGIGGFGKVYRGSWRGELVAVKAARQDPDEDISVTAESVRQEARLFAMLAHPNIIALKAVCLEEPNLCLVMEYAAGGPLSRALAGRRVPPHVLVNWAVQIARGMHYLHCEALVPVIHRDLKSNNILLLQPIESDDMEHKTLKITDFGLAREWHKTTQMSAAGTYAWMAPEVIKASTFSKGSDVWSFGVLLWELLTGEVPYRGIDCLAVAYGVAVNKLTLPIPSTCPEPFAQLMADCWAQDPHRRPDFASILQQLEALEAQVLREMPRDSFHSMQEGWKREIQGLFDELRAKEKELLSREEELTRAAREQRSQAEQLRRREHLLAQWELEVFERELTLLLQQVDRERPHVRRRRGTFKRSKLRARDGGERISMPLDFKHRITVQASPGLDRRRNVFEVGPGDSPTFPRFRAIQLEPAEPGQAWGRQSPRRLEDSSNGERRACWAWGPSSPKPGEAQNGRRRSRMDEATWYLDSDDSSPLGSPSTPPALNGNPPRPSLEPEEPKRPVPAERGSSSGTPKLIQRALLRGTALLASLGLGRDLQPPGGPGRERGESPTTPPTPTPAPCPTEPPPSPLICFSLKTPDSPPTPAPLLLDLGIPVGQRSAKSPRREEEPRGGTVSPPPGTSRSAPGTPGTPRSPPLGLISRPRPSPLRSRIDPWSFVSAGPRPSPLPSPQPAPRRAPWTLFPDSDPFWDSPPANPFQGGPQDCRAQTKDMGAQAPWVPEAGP

Cc1ccc(NC(=O)c2cccc(C(F)(F)F)c2)cc1N1Cc2cnc(Nc3ccc(N4CCN(Cc5cn(CCCCCOc6cccc7c6C(=O)N(C6CCC(=O)NC6=O)C7=O)nn5)CC4)nc3)nc2N(C)C1=O (stereo not shown) [DB0646, N-(3-(7-((6-(4-((1-(5-((2-(2,6-Dioxopiperidin-3-yl)-1,3-dioxoisoindolin-4-yl)oxy)pentyl)-1H-1,2,3-triazol-4-yl)methyl)piperazin-1-v)pyridin-3-yl)amino)-1-methyl-2-oxo-1,4-dihydropyrimido[4,5-d]pyrimidin-3(2H)-yl)-4-methylphenyl)-3-(trifluoromethyl)benzamide] was tested, and the “logFC MAP3K11 (Q16584)” value ([1]; experiment wp107) was −0.5077, the “logFC MAP3K11 (Q16584)” value ([1]; experiment wp117) was −0.4308 and the “logFC UHMK1” value ([2]; Accession Q8TAS1, experiment wp107, direction down) was −0.3263. For the same compound, the “logFC UHMK1” value ([2]; Accession Q8TAS1, experiment wp117, direction down) was −0.4722, the “logFC UHMK1” value [2, 6] was −0.4468 and the “logFC UHMK1” value [2, 7] was −0.7551. The “logFC UHMK1” value ([2]; Accession Q8TAS1, experiment wp160, 8 hr, direction down) was −0.5196, the “logFC UHMK1” value ([2]; UHMK1 (Q8TAS1), experiment wp045) was −0.3945 and the “logFC UHMK1” value ([2]; UHMK1 (Q8TAS1), experiment wp107) was −0.3263. For the same compound, the “logFC UHMK1” value ([2]; UHMK1 (Q8TAS1), experiment wp117) was −0.4722, the “logFC UHMK1” value [2, 8] was −0.4468 and the “logFC UHMK1” value [2, 9] was −0.7551. For the same compound, the “logFC UHMK1” value ([2]; UHMK1 (Q8TAS1), experiment wp160, 8 hr) was −0.5196, the “logFC UHMK1 (Q8TAS1)” value ([2]; experiment wp045) was −0.3945 and the “logFC TTK” value ([3]; experiment wp045) was −0.5757. For the same compound, the “logFC TTK” value ([3]; experiment wp107) was −0.372, the “logFC TTK” value ([3]; experiment wp117) was −0.4267 and the “logFC TTK” value ([3]; experiment wp152) was −0.5131. The “logFC TTK” value ([3]; experiment wp160, 4 hr) was −0.513, the “logFC TTK” value ([3]; experiment wp160, 8 hr) was −0.7057 and the “logFC TTK (P33981)” value ([3]; experiment wp045) was −0.5757. For the same compound, the “logFC TTK (P33981)” value ([3]; experiment wp107) was −0.372, the “logFC TTK (P33981)” value ([3]; experiment wp117) was −0.4267 and the “logFC TTK (P33981)” value ([3]; experiment wp152) was −0.5131. The “logFC TTK (P33981)” value ([3]; experiment wp160, 4 hr) was −0.513, the “logFC TTK (P33981)” value ([3]; experiment wp160, 8 hr) was −0.7057 and the “logFC FASTKD3” value ([4]; experiment wp152) was −0.3418.

With CC(C)S(=O)(=O)c1ccccc1Nc1nc(Nc2ccc(N3CCN(CCOCCNC(=O)CNc4cccc5c4C(=O)N(C4CCC(=O)NC4=O)C5=O)CC3)cc2)ncc1Cl (stereo not shown) [SK.3.91] the “logFC MAP3K11 (Q16584)” value ([1]; experiment wp103) was −0.7838, the “logFC MAP3K11 (Q16584)” value ([1]; experiment wp107) was −2.182 and the “logFC MAP3K11 (Q16584)” value ([1]; experiment wp114) was −0.4774. The “logFC MAP3K11 (Q16584)” value ([1]; experiment wp133, 1 hr) was −0.3986, the “logFC MAP3K11 (Q16584)” value ([1]; experiment wp133, 2 hr) was −0.8441 and the “logFC MAP3K11 (Q16584)” value ([1]; experiment wp133, 4 hr) was −1.487. The “logFC of CDK5” value ([5]; experiment wp016) was −1.126, the “logFC of CDK5” value ([5]; experiment wp016, 1 uM) was −1.429 and the “logFC of CDK5” value ([5]; experiment wp103) was −1.043. For the same compound, the “logFC of CDK5” value ([5]; experiment wp105) was −0.931, the “logFC CDK5 (Q00535)” value ([5]; Experiment wp105, direction of change down) was −0.931 and the “logFC CDK5 (Q00535)” value ([5]; Experiment wp107) was −1.014. The “logFC CDK5 (Q00535)” value ([5]; Experiment wp114) was −0.468, the “logFC CDK5 (Q00535)” value ([5]; Experiment wp114, direction of change down) was −0.468 and the “logFC CDK5 (Q00535)” value ([5]; Experiment wp160, 2 hr) was −0.6265. For the same compound, the “logFC CDK5 (Q00535)” value ([5]; Experiment wp172) was −1.304, the “logFC CDK5 (Q00535)” value ([5]; experiment wp016, 1 uM, direction of change down) was −1.429 and the “logFC CDK5 (Q00535)” value ([5]; experiment wp016, direction of change down) was −1.126. For the same compound, the “logFC CDK5 (Q00535)” value ([5]; experiment wp103, direction of change down) was −1.043, the “logFC CDK5 (Q00535)” value ([5]; experiment wp107, direction of change down) was −1.014 and the “logFC CDK5 (Q00535)” value ([5]; experiment wp133, 2 hr) was −0.6608. The “logFC CDK5 (Q00535)” value ([5]; experiment wp133, 2 hr, direction of change down) was −0.6608, the “logFC CDK5 (Q00535)” value ([5]; experiment wp133, 4 hr) was −1.242 and the “logFC CDK5 (Q00535)” value ([5]; experiment wp133, 4 hr, direction of change down) was −1.242. The “logFC CDK5 (Q00535)” value ([5]; experiment wp160, 1 hr) was −0.3257, the “logFC CDK5 (Q00535)” value ([5]; experiment wp160, 1 hr, direction of change down) was −0.3257 and the “logFC CDK5 (Q00535)” value ([5]; experiment wp160, 2 hr, direction of change down) was −0.6265. For the same compound, the “logFC CDK5 (Q00535)” value ([5]; experiment wp160, 4 hr) was −1.197, the “logFC CDK5 (Q00535)” value ([5]; experiment wp160, 4 hr, direction of change down) was −1.197 and the “logFC CDK5 (Q00535)” value ([5]; experiment wp172, direction of change down) was −1.304. The “logFC UHMK1” value [2, 6] was −0.4144, the “logFC UHMK1” value [2, 7] was −0.3959 and the “logFC UHMK1” value [2, 8] was −0.4144. For the same compound, the “logFC UHMK1” value [2, 9] was −0.3959, the “logFC TTK” value ([3]; experiment wp103) was −0.3267 and the “logFC TTK” value ([3]; experiment wp107) was −0.4781. The “logFC TTK” value ([3]; experiment wp133, 2 hr) was −0.3833, the “logFC TTK” value ([3]; experiment wp133, 4 hr) was −0.5052 and the “logFC TTK (P33981)” value ([3]; experiment wp103) was −0.3267. For the same compound, the “logFC TTK (P33981)” value ([3]; experiment wp107) was −0.4781, the “logFC TTK (P33981)” value ([3]; experiment wp133, 2 hr) was −0.3833 and the “logFC TTK (P33981)” value ([3]; experiment wp133, 4 hr) was −0.5052. The “logFC FASTKD3” value ([4]; experiment wp160, 1 hr) was −0.997.
